Assay results as given in US7001921B1, “Cell adhesion inhibitors” (Biogen Idec MA Inc., priority 1995, dated 2006).

Biological target: T1, VLA4 (Homo sapiens, UniProt P05556+P13612)
T1 construct: endogenous in cells; host or cells: Ramos cells
Assay: Inhibition of VLA4-dependent adhesion to BSA-CS1 (labelled Ramos cells)
Assay type: cell-based
Settings: binding of BCECF-AM labelled Ramos cells to CS1 peptide-coated wells, 2 mM MnCl2, 30 minutes at room temperature; IC50 range
Text: For example, the cell adhesion inhibitory activity of these compounds may be measured by determining the concentration of inhibitor required to block the binding of VLA-4-expressing cells to fibronectin- or CS1-coated plates. In this assay microtiter wells are coated with either fibronectin (containing the CS-1 sequence) or CS-1. If CS-1 is used, it must be conjugated to a carrier protein, such as bovine serum albumin, in order to bind to the wells. Once the wells are coated, varying concentrations of the test compound are then added together with appropriately labelled, VLA-4-expressing cells. Alternatively, the test compound may be added first and allowed to incubate with the coated wells prior to the addition of the cells. The cells are allowed to incubate in the wells for at least 30 minutes. Following incubation, the wells are emptied and washed. Inhibition of binding is measured by quantitating the fluorescence or radioactivity bound to the plate for each of the various concentrations of test compound, as well as for controls containing no test compound.
VLA-4-expressing cells that may be utilized in this assay include Ramos cells, Jurkat cells, A375 melanoma cells, as well as human peripheral blood lymophocytes (PBLs). The cells used in this assay may be fluorescently or radioactively labelled.
This assay was used to assess the potency of VLA4-directed inhibitory compounds of this invention.
We dissolved BSA-SMCC (Pierce Chemical, Rockford, Ill.; Catalog # 77115) in H2O at a concentration of 10 mg/mL. [SEQ ID NO:4]: […](“Cys-Tyr-CS1 peptide”), which we synthesized by conventional solid phase chemistry and purified by HPLC, was dissolved in 10 mM HEPES pH 5, 50 mM NaCl and 0.1 mM EDTA also at a concentration of 10 mg/mL. We then mixed 500 μL of BSA-SMCC, 250 μL of Cys-Tyr-CS1 peptide and 75 μL of […] and allowed the conjugation reaction to proceed for 30 minutes. We stopped the reaction by adding 1 μL of beta-mercaptoethanol. Samples were analyzed for cross-linking by SDS-PAGE. This reaction produced multiple molecules of the Cys-Tyr-CS1 peptide conjugate to each BSA molecule.
We coated the wells of a Linbro titertek polystyrene 96-well flat bottom plate (Flow Laboratories, Maclean, Va.; catalog #76-231-05) with 100 μL of the above-described BSA-CS1 solution diluted to 1 μg/mL in 0.05 M NaHCO3 (15 mM NaHCO3, 35 mM Na2CO3) pH 9.2. Some wells were not coated with CS1 in order to assess non-specific cell binding (NSB). The plate was then incubated overnight at 4° C.
Following this incubation, the contents of the wells were removed by inverting and blotting the plate. All of the wells were then blocked with 100 μL of 1% BSA in PBS, 0.02% NaN3, for a minimum of one hour at room temperature.
3. Preparation of Fluorescently Labelled Ramos Cells Ramos cells are grown, maintained and labelled in RPMI 1640 culture medium containing 1% BSA. Just prior to running the assay, we added 2′,7′-bis-(2-carboxyethyl)5 (and -6) carboxyfluorescein acetoxymethyl ester (“BCECF-AM”; Molecular Probes Inc., Eugene, Oreg.; catalog #B-1150) to a final concentration of 2 μM to a culture of Ramos cells (4×10^6 cells/mL). We incubated the cells for 20 minutes at 37° C.
Following labelling, the cells were washed twice in assay buffer (24 mM TRIS, 137 mM NaCl, 2.7 mM KCl, pH 7.4, containing 0.1% BSA and 2 mM glucose) to remove any cations originating from the culture medium. The cells were then resuspended in assay buffer to 4×10^6 cells/mL and 2 mM MnCl2 was added to upregulate VLA4 on the surface of the cells.
Immediately prior to running the assay, we removed the BSA blocking solution from the 96-well plates and washed the wells with 100 μL of assay buffer. We then added to each well 25 μL of test cell adhesion inhibitory compound at 2× the final concentration and 25 μL of the labelled Ramos cells. Final concentrations were selected across a range of anticipated IC50s, usually between 0.01 nM–10 μM. […]

T1 sequence (P13612 34-1032): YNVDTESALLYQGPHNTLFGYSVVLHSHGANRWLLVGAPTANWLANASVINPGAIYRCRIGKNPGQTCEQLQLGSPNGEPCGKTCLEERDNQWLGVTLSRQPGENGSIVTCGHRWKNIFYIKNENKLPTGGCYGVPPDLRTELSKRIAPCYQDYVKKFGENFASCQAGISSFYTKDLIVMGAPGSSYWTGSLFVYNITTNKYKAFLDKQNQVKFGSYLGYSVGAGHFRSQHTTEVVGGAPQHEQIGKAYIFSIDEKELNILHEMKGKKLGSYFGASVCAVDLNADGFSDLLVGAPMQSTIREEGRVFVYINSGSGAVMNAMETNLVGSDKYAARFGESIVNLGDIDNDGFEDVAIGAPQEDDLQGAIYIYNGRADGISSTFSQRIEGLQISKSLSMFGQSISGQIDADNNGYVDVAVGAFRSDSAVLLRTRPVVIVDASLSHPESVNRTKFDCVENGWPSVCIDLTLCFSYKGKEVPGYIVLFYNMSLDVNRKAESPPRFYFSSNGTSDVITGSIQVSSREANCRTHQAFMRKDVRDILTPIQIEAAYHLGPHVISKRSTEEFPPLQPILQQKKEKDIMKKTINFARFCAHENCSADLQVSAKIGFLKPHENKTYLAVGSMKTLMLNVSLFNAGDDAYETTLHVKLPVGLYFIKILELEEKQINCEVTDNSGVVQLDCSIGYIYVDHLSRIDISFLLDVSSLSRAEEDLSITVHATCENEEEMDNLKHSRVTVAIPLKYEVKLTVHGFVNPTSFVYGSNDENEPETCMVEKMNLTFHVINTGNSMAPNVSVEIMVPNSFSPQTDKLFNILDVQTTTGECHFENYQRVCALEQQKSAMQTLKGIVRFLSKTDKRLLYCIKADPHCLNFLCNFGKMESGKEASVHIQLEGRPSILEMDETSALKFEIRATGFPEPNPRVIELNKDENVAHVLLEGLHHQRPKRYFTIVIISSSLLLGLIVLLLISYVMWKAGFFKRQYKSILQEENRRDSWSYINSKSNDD
T1 sequence (P05556 21-798): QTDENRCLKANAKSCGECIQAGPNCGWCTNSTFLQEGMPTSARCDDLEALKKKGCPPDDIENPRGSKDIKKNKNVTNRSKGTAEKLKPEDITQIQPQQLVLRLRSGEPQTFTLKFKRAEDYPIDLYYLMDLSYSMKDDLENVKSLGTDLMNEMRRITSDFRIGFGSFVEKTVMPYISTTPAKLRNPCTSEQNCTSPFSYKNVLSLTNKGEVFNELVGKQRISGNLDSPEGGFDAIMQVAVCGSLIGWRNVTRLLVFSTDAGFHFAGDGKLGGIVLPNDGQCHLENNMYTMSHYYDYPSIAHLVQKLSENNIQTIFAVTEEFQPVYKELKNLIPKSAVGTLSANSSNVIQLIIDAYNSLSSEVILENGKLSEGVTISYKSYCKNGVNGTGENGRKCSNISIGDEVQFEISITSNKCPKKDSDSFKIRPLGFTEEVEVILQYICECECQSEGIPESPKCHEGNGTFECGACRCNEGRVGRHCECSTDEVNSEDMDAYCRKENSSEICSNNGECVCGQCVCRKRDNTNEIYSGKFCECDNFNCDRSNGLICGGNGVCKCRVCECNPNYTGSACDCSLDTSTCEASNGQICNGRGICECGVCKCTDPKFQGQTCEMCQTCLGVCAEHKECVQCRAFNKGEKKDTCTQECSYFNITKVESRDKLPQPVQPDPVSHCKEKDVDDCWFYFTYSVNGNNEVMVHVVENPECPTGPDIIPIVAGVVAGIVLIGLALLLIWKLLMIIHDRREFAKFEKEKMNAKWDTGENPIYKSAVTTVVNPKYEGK

IC50 [µM]	SMILES
> 10	CC(C)CC(NC(=O)OCc1ccccc1)C(=O)NC(CC(=O)O)c1ccccc1 (stereo not drawn) [compound 1085]
> 10	COc1ccc(CC(=O)NC(CC(C)C)C(=O)NC(CC(=O)O)c2ccccc2)cc1 (stereo not drawn) [compound 1092]
> 10	CC(C)CC(NC(=O)Cc1ccc([N+](=O)[O-])cc1)C(=O)NC(CC(=O)O)c1ccccc1 (stereo not drawn) [compound 1093]
> 10	CCCCCCC(=O)NC(CC(C)C)C(=O)NC(CC(=O)O)c1ccccc1 (stereo not drawn) [compound 1094]
> 10	CC(C)CC(NC(=O)Cc1ccc(O)c(O)c1)C(=O)NC(CC(=O)O)c1ccccc1 (stereo not drawn) [compound 1098]
> 10	CC(C)CC(NC(=O)Cc1ccc(N)cc1)C(=O)NC(CC(=O)O)c1ccccc1 (stereo not drawn) [compound 1103]
0.05 to 10	CC(C)CC(NC(=O)Cc1ccc(NS(=O)(=O)c2ccccc2)cc1)C(=O)NC(CC(=O)O)c1ccccc1 (stereo not drawn) [compound 1104]
> 10	CC(C)CC(NC(=O)CCCCCNC(=O)Nc1ccccc1)C(=O)NC(CC(=O)O)c1ccccc1 (stereo not drawn) [compound 1106]
> 10	CC(C)CC(NC(=O)Cc1ccc(O)c([N+](=O)[O-])c1)C(=O)NC(CC(=O)O)c1ccccc1 (stereo not drawn) [compound 1112]
> 10	COc1ccc(CC(NC(=O)Cc2ccccc2)C(=O)NC(CC(=O)O)c2ccccc2)cc1 (stereo not drawn) [compound 1122]
0.05 to 10	O=C(O)CC(NC(=O)C(CSCc1ccccc1)NC(=O)Cc1ccccc1)c1ccccc1 (stereo not drawn) [compound 1127]
0.05 to 10	O=C(O)CC(NC(=O)C(CCCCNC(=O)OCc1ccccc1)NC(=O)Cc1ccc(NC(=O)Nc2ccccc2)cc1)c1ccccc1 (stereo not drawn) [compound 1132]
< 0.05	CSCCC(NC(=O)Cc1ccc(NC(=O)Nc2ccccc2)cc1)C(=O)NC(CC(=O)O)c1ccccc1 (stereo not drawn) [compound 1135]
> 10	CC(C)CC(NC(=O)Cc1ccc(O)cc1)C(=O)NC(CC(=O)O)Cc1ccccc1 (stereo not drawn) [compound 1143]
0.05 to 10	CC(C)CC(NC(=O)Cc1ccc(NC(=O)OC(C)(C)C)cc1)C(=O)NC(CC(=O)O)c1ccccc1 (stereo not drawn) [compound 1145]
> 10	CC(C)CC(NC(=O)Cc1ccc(O)cc1)C(=O)NC(CC(=O)O)c1cccnc1 (stereo not drawn) [compound 1148]
> 10	CC(C)CC(NC(=O)c1ccc2ccccc2n1)C(=O)NC(CC(=O)O)c1ccccc1 (stereo not drawn) [compound 1149]
> 10	CC(C)CC(NC(=O)Cc1ccccc1)C(=O)NC(CC(=O)O)Cc1ccccc1 (stereo not drawn) [compound 1157]
0.05 to 10	CC(C)CC(NC(=O)Cc1ccccc1)C(=O)NC(CC(=O)O)c1ccc2c(c1)OCO2 (stereo not drawn) [compound 1158]

Continued, compound first:

SMILES	IC50 [µM]
CC(C)CC(NC(=O)Cc1ccccc1)C(=O)NC(CC(=O)O)c1ccccc1 (stereo not drawn) [compound 1081]	0.05 to 10
CC(C)CC(NC(=O)CCCc1ccccc1)C(=O)NC(CC(=O)O)c1ccccc1 (stereo not drawn) [compound 1082]	> 10
CC(C)CC(NC(=O)Nc1ccccc1)C(=O)NC(CC(=O)O)c1ccccc1 (stereo not drawn) [compound 1086]	0.05 to 10
CC(C)CC(C(=O)NC(CC(=O)O)c1ccccc1)N(C)C(=O)CCc1ccc(O)cc1 (stereo not drawn) [compound 1087]	> 10
COc1ccc(C(CC(=O)O)NC(=O)C(CC(C)C)NC(=O)Cc2ccc(NC(=O)Nc3ccccc3)cc2)cc1 (stereo not drawn) [compound 1088]	< 0.05
COc1ccc(C(CC(=O)O)NC(=O)C(CCSC)NC(=O)Cc2ccc(NC(=O)Nc3ccccc3)cc2)cc1 (stereo not drawn) [compound 1089]	< 0.05
CC(C)CC(NC(=O)Cc1ccc(O)cc1)C(=O)NC(CC(=O)O)c1ccccc1 (stereo not drawn) [compound 1091]	0.05 to 10
CC(C)CC(NC(=O)Cc1ccccc1O)C(=O)NC(CC(=O)O)c1ccccc1 (stereo not drawn) [compound 1096]	> 10
CC(C)CC(NC(=O)Cc1cccc(O)c1)C(=O)NC(CC(=O)O)c1ccccc1 (stereo not drawn) [compound 1097]	0.05 to 10
COc1cc(CC(=O)NC(CC(C)C)C(=O)NC(CC(=O)O)c2ccccc2)c(Br)cc1O (stereo not drawn) [compound 1100]	0.05 to 10
CC(C)CC(NC(=O)Cc1ccc(NC(=O)OCc2ccccc2)cc1)C(=O)NC(CC(=O)O)c1ccccc1 (stereo not drawn) [compound 1101]	> 10
CC(C)CC(NC(=O)Cc1ccc(NC(=O)c2ccccc2)cc1)C(=O)NC(CC(=O)O)c1ccccc1 (stereo not drawn) [compound 1105]	0.05 to 10
CC(C)CC(NC(=O)CCCCCNC(=O)NC(C)(C)C)C(=O)NC(CC(=O)O)c1ccccc1 (stereo not drawn) [compound 1107]	> 10
CC(C)CC(NC(=O)Nc1ccc(N)cc1)C(=O)NC(CC(=O)O)c1ccccc1 (stereo not drawn) [compound 1109]	> 10
CC(C)CC(NC(=O)Nc1ccc(NC(=O)Nc2ccccc2)cc1)C(=O)NC(CC(=O)O)c1ccccc1 (stereo not drawn) [compound 1110]	0.05 to 10
COc1cc(CC(=O)NC(CC(C)C)C(=O)NC(CC(=O)O)c2ccccc2)cc(OC)c1O (stereo not drawn) [compound 1111]	> 10
CC(C)CC(NC(=O)Cc1cccc([N+](=O)[O-])c1)C(=O)NC(CC(=O)O)c1ccccc1 (stereo not drawn) [compound 1113]	> 10
CC(C)CC(C(=O)NC(CC(=O)O)c1ccccc1)N(C)C(=O)Cc1ccccc1 (stereo not drawn) [compound 1114]	> 10

SMILES	IC50 [µM]
CC(C)CC(NC(=O)Cc1ccccc1)C(=O)NC(CC(=O)O)c1ccc(Cl)cc1 (stereo not drawn) [compound 1115]	0.05 to 10
COC(C)C(NC(=O)Cc1ccccc1)C(=O)NC(CC(=O)O)c1ccccc1 (stereo not drawn) [compound 1117]	> 10
O=C(O)CC(NC(=O)C(CCc1ccccc1)NC(=O)Cc1ccccc1)c1ccccc1 (stereo not drawn) [compound 1123]	> 10
O=C(O)CC(NC(=O)C(COCc1ccccc1)NC(=O)Cc1ccccc1)c1ccccc1 (stereo not drawn) [compound 1126]	> 10
CC(C)CC(NC(=O)Cc1ccc(NC(=O)Nc2ccccc2)cc1)C(=O)NC(CC(=O)O)c1ccc2c(c1)CCC2 (stereo not drawn) [compound 1128]	0.05 to 10
O=C(O)CC(NC(=O)C(Cc1ccccc1)NC(=O)Cc1ccc(NC(=O)Nc2ccccc2)cc1)c1ccc2c(c1)OCO2 (stereo not drawn) [compound 1129]	0.05 to 10
O=C(O)CC(NC(=O)C(Cc1ccccc1)NC(=O)Cc1ccc(NC(=O)Nc2ccccc2)cc1)c1ccccc1 (stereo not drawn) [compound 1130]	0.05 to 10
CCC(C)C(NC(=O)Cc1ccc(NC(=O)Nc2ccccc2)cc1)C(=O)NC(CC(=O)O)c1ccccc1 (stereo not drawn) [compound 1131]	0.05 to 10
CCC(C)C(NC(=O)Cc1ccc(NC(=O)Nc2ccccc2)cc1)C(=O)NC(CC(=O)O)c1ccc2c(c1)OCO2 (stereo not drawn) [compound 1133]	0.05 to 10
CC(C)(C)OC(=O)NCC(NC(=O)Cc1ccc(NC(=O)Nc2ccccc2)cc1)C(=O)NC(CC(=O)O)c1ccccc1 (stereo not drawn) [compound 1134]	0.05 to 10
NCC(NC(=O)Cc1ccc(NC(=O)Nc2ccccc2)cc1)C(=O)NC(CC(=O)O)c1ccccc1 (stereo not drawn) [compound 1138]	0.05 to 10
NCCCCC(NC(=O)Cc1ccc(NC(=O)Nc2ccccc2)cc1)C(=O)NC(CC(=O)O)c1ccccc1 (stereo not drawn) [compound 1139]	0.05 to 10
CC(C)CC(NC(=O)Cc1ccc(O)cc1)C(=O)NC(CC(=O)O)c1ccccc1 (stereo not drawn) [compound 1144]	0.05 to 10
COc1cccc(C(CC(=O)O)NC(=O)C(CC(C)C)NC(=O)Cc2ccc(O)cc2)c1 (stereo not drawn) [compound 1146]	0.05 to 10
CC(=O)Nc1ccc(CC(=O)NC(CC(C)C)C(=O)NC(CC(=O)O)c2ccccc2)cc1 (stereo not drawn) [compound 1147]	0.05 to 10
CC(C)CC(NC(=O)CCc1ccccc1)C(=O)NC(CC(=O)O)c1ccccc1 (stereo not drawn) [compound 1150]	> 10
CC(C)CC(NC(=O)OCc1ccccc1)C(=O)NC(CC(=O)O)c1cccnc1 (stereo not drawn) [compound 1153]	> 10
